The values below come from US20130158098A1, “Alkenyl Substituted Cycloaliphatic Compounds as Chemical Inducers of Proximity” (priority 2010, published 2013).

The test deals with ERK1/2 phosphorylation (SOS-PYLcs and myr-ABIcs). Description: SOS activation: ABA-induced ERK phosphorylation by SOS localization. The format is cell-based, human. The conditions noted are these: cells expressing SOS-PYLcs and myr-ABIcs; 250 μM ABA. As for the experimental part: Six-well plates of 293T cells containing 0.5×10^6 cells per well were transfected with 3 μg of total DNA using FuGENE HD (Roche). Cells were transfected with expression plasmids encoding myr-ABI, SOS-PYL, SOS-FKBP, myr-SOS, and an expression vector control, pUC19. ABA (250 μM) was added at 3, 6, 12, and 24 hours before harvesting the cells. Cells were lysed in 1× lysis buffer [50 mM Tris-HCl (pH 7.5), 300 mM NaCl, 1% NP-40, 0.1% SDS, 0.5% sodium deoxycholate, 20 mM NaF, 1 mM Na3VO4, 1 mM phenylmethylsulfonyl fluoride (PMSF), and 1× protease inhibitor mixture (Calbiochem)] for 20 min at 4° C. After centrifugation at 14,000 g for 15 min, proteins were separated on 4 to 12% bis-tris NuPAGE gels (Invitrogen) and transferred to polyvinylidene difluoride membranes. […] Infrared dye 800 and 680 anti-rabbit or anti-mouse secondary antibodies were incubated at room temperature for 1 hour in 10% BSA-PBST and detected with a LI-COR/Odyssey scanner. […]

With `CC1=CC(=O)CC(C)(C)C1(O)/C=C/C(C)=C/C(=O)O` (stereo not shown) [ABA, abscisic acid], the “phosphorylation of ERK” value is listed as “induced the phosphorylation of ERK”.
